# Laboratory results published in patent US20020091086A1, “Peptides that block viral infectivity and methods of use thereof” (priority 1999, published 2002).
# “And” between values parts separate entries of the source, which are not always exact repeats. Equal values may be shown once. Peptide text beside a SMILES is read from it.
# What was measured:
# [1] = tested on: HIV-1 isolate p7261 (low AZT); test: resistant HIV-1 isolates in PBMC, p24 ELISA; type: cell-based; settings: GPG 100 μM, 14 days post infection
# HIV-1 SF-2 virus strain = test: stability in human blood and plasma by HIV-1 replication assay in HUT78 cells; type: in vitro ADME; settings: incubated 1, 2 and 4 hours at 37° C. in human blood or plasma; final 20 μM or 100 μM; p24 day 7 and 14
# Protocol: This example describes several studies that were performed to access the stability of small peptides in human blood and plasma. Accordingly, human blood was taken freshly and treated with EDTA. Plasma was separated by centrifuging at 2,500 rpm for 20 minutes. GPG-NH2 was added into blood or plasma at concentrations of 10 mM or 50 mM followed by incubation in 37° C. for 1, 2 and 4 hours, respectively. […] After incubation in 37° C., the GPG-NH2 containing blood was centrifuged at 2,500 rpm for 20 minutes to isolate plasma. Some of the plasma samples were treated with CaCl2 at concentration of 5 mM in 37° C. for 10 minutes followed by centrifuging at 13,000 rpm for 30 minutes and the supernatant are referred to as CaCl2 treated plasma. Then all the GPG-NH2 containing plasma samples were diluted in RPMI medium to give the final concentrations 20 μM or 100 μM of GPG-NH2 (500 fold dilutions) and were then used in HIV-1 replication assays.
# The replication assays were performed on HUT78 cells and the HIV-1 SF-2 virus strain was used. Briefly, approximately 200,000 cells were resuspended in the diluted GPG-amide containing medium, plasma, or plasma from blood. The GPG-NH2 containing medium, plasma, or plasma from blood was incubated with the cells for either 1 hr, 2 hr, or 4 hr at 37° C. Subsequently, SF-2 virus was added at 25 TCID50. […]
# [2] = in vivo uptake, distribution and elimination of 14C GPG-NH2 in rats
# Protocol: Further, the in vivo uptake of small peptides was analyzed in rats. Rats were fed ^14C GPG-NH2 and, after various time points, blood, urine, and tissue samples were collected from the animals. Samples of rat urine taken eight hours after feeding and rat plasma taken 30 minutes, two hours, and eight hours after feeding were separated on a TLC plate, as shown in FIG. 7 (designated urine8, rp0.5, rp2, and rp^8, accordingly). All the tissues were kept in −20° C. after necropsy before any assay was performed. […] of the tissue samples were collected from three different locations of each organ analyzed and the organ tissue was subsequently dissolved in 250 μl of tissue solublizer (OptiSolv, LKB-Wallac) at 45° C. for four to six hours. The homogenized tissue solutions were decolorized by the addition of 50 μl of 30% H2O2 and 100 μl of isopropanol before 3 ml of 0.05M HCl acidified scintillation cocktail (Luma Gel, Lumac/3M) was added. The radioactivity was determined with a beta scintillation counter (LKB-Wallac 1218 Rack Beta). The free/unbound GPG-NH2 in the plasma was collected by precipitation with one part of plasma and two parts of ethanol followed by incubation at −70° C. for one hour and centrifugation at 20,000×g for 15 min at 4° C. Blood cell samples were diluted with PBS (in the ratio of 2 parts of blood cells to 1 part of PBS) before 10 μl of the mixture was sampled and analyzed as the tissue samples. Five to 20 μl of plasma and urine samples were directly mixed with 3 ml of Ready Safe (Beckman) fluid before quantification. The values are expressed in nCi.
# The calculation of the maximum uptake was determined as follows. The total feeding was 800 μCi/kg rat body weight (160 μCi in total per animal). On the assumption that the GPG-NH2 and its metabolities were evenly distributed in the body, the GPG-NH2 present in tissues would be the average counts/g from different tissues from the total number of animals studied divided by the total number of animals and multiplied by the body weight and the factor 0.9. This factor is derived to omit the blood volume since an estimate of blood volume is roughly 10% of the average body weight. For example (from the data of animals 1-5), if the total body weight for five rats was […] and the radioactivity detected from various tissues was (35+466+495+366+331) or 1,693 nCi and the radioactivity detected from blood was (93+130) or 223 nCi and the radioactivity detected in urine was 4, 015 nCi, the maximal intake of the small peptide can be calculated as: […]
# In FIG. 9, the distribution of radioactivity between blood cells, plasma protein bound, as well as, non protein bound (free) plasma radioactivity is shown. The elimination of radioactivity from the plasma fraction is depicted in FIG. 10. […] Protein bound radioactivity was assayed after precipitation with two parts of 99.5% ethanol. From the uptake and distribution data and the TLC data above, the minimal uptake of intact GPG-NH2 recovered from the plasma was calculated and, in one hour after feeding of the rats, at least 1% of fed GPG-NH2 could be recovered as protein free GPG-NH2 in the plasma.
# [3] = rats fed 14C GPG-NH2 800 μCi/kg, sacrificed after 4 hours, avg of animals 1-5
# [4] = rats fed 14C GPG-NH2 800 μCi/kg, sacrificed after 8 hours, avg of animals 6-10
# [5] = rats fed 14C GPG-NH2 800 μCi/kg, sacrificed after 8 hours, individual animals 6-10
smiles,measurement,setting,value
"NCC(=O)N1CCC[C@H]1C(=O)NCC(N)=O [GPG-NH2, glycyl-prolyl-glycine amide] (H-Gly-Pro-Gly-NH2)",% reduction,[1],(100%)
same,HIV-1 p24,[1],<500 pg/mL
same,"ability to inhibit HIV-1 after incubation in medium, plasma or blood",HIV-1 SF-2 virus strain,No significant difference
same,radioactivity in urine (used for uptake calculation),"[2]; animals 1-5, 4 hours","4,015 nCi"
same,radioactivity present in blood (calculated),"[2]; animals 1-5, 4 hours, body weight 207 g, factor 0.1","blood (93 + 130) * 207 * 0.1 = 4,642 nCi"
same,"radioactivity present in tissue (whole body, calculated)","[2]; animals 1-5, 4 hours, body weight 207 g, factor 0.9","(35 + 466 + 495 + 366 + 331)/5 * 207 * 0.9 = 63,240 nCi"
same,change of radioactivity in the urine,[2]; between hours 4 and 8,double
same,portion of urine radioactivity that was intact GPG-NH2,[2]; electrospray mass spectrometry of TLC spot,only a small portion
same,fed GPG-NH2 recovered as protein free GPG-NH2 in the plasma,[2]; one hour after feeding of the rats,at least 1%
same,maximal uptake,"[2]; oral feeding 800 μCi/kg, animals 1-5, 4 hours","(63.24 + 4.642 + 4.015)/800 * 0.207 = 0.4342, or 43% maximal"
same,"radioactivity in Blood cells, avg",[2]; [3],93 nCi/ml or g tissue
same,"radioactivity in Brain, avg",[2]; [3],35 nCi/ml or g tissue
same,"radioactivity in Kidneys, avg",[2]; [3],466 nCi/ml or g tissue
same,"radioactivity in Liver, avg",[2]; [3],495 nCi/ml or g tissue
same,"radioactivity in Plasma, avg",[2]; [3],130 nCi/ml or g tissue
same,"radioactivity in Spleen, avg",[2]; [3],366 nCi/ml or g tissue
same,"radioactivity in Thymus, avg",[2]; [3],331 nCi/ml or g tissue
same,"radioactivity in Total urine, avg",[2]; [3],"4,015 nCi/ml or g tissue"
same,"radioactivity in Urine, avg",[2]; [3],"5,660 nCi/ml or g tissue"
same,"radioactivity in Blood cells, avg",[2]; [4],78 nCi
same,"radioactivity in Brain, avg",[2]; [4],30 nCi
same,"radioactivity in Kidneys, avg",[2]; [4],415 nCi
same,"radioactivity in Liver, avg",[2]; [4],494 nCi
same,"radioactivity in Plasma, avg",[2]; [4],135 nCi
same,"radioactivity in Spleen, avg",[2]; [4],293 nCi
same,"radioactivity in Thymus, avg",[2]; [4],334 nCi
same,"radioactivity in Total urine, avg",[2]; [4],"8,426 nCi"
same,"radioactivity in Urine, avg",[2]; [4],"3,525 nCi"
same,radioactivity in Blood cells,[2]; [5],51 nCi and 72 nCi and 87 nCi and 71 nCi and 108 nCi
same,radioactivity in Brain,[2]; [5],43 nCi and 27 nCi and 28 nCi and 25 nCi and 29 nCi
same,radioactivity in Kidneys,[2]; [5],255 nCi and 488 nCi and 461 nCi and 401 nCi and 468 nCi
same,radioactivity in Liver,[2]; [5],537 nCi and 419 nCi and 478 nCi and 458 nCi and 578 nCi
same,radioactivity in Plasma,[2]; [5],138 nCi and 123 nCi and 135 nCi and 129 nCi and 148 nCi
same,radioactivity in Spleen,[2]; [5],307 nCi and 281 nCi and 257 nCi and 336 nCi and 285 nCi
same,radioactivity in Thymus,[2]; [5],340 nCi and 350 nCi and 323 nCi and 349 nCi and 311 nCi
same,radioactivity in Total urine,[2]; [5],"6,463 nCi and 6,653 nCi and 11,173 nCi and 10,227 nCi and 7,613 nCi"
same,radioactivity in Urine,[2]; [5],"2,992 nCi and 5,040 nCi and 3,121 nCi and 4,297 nCi and 2,175 nCi"
same,relative distribution of retained/immobilized GPG-NH2 and its metabolites in sampled tissues,"[2]; rats, oral","highest in the liver followed by the kidney, followed by the spleen, followed by the thymus, followed by the brain"
